In ChEMBL document CHEMBL1909046, “DrugMatrix in vitro pharmacology data”:
pIC50, pKi: −log10 of the molar value.

Columns and labels:
[1] = molecular target: 5-hydroxytryptamine receptor 6 (Homo sapiens, UniProt P50406); assay type: cell membranes, HeLa, Membrane; details: hela; further: in other assays of this panel Not Active means under 50% inhibition at 10 µM
[2] = DRUGMATRIX: Calcium Channel Type L, Benzothiazepine radioligand binding (ligand: [3H] Diltiazem); assay type: cell membranes, Rattus norvegicus, Wistar, Brain, Membrane; details: Not Active = under 50% inhibition at 10 µM
[3] = molecular target: T1, Nitric oxide synthase, inducible (Mus musculus, UniProt P29477); design: species or system Escherichia coli;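 further: inhibition of iNOS enzyme activity measured with L-arginine as substrate; in other assays of this panel Not Active means under 50% inhibition at 10 µM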
T1 sequence (P29477 whole entry): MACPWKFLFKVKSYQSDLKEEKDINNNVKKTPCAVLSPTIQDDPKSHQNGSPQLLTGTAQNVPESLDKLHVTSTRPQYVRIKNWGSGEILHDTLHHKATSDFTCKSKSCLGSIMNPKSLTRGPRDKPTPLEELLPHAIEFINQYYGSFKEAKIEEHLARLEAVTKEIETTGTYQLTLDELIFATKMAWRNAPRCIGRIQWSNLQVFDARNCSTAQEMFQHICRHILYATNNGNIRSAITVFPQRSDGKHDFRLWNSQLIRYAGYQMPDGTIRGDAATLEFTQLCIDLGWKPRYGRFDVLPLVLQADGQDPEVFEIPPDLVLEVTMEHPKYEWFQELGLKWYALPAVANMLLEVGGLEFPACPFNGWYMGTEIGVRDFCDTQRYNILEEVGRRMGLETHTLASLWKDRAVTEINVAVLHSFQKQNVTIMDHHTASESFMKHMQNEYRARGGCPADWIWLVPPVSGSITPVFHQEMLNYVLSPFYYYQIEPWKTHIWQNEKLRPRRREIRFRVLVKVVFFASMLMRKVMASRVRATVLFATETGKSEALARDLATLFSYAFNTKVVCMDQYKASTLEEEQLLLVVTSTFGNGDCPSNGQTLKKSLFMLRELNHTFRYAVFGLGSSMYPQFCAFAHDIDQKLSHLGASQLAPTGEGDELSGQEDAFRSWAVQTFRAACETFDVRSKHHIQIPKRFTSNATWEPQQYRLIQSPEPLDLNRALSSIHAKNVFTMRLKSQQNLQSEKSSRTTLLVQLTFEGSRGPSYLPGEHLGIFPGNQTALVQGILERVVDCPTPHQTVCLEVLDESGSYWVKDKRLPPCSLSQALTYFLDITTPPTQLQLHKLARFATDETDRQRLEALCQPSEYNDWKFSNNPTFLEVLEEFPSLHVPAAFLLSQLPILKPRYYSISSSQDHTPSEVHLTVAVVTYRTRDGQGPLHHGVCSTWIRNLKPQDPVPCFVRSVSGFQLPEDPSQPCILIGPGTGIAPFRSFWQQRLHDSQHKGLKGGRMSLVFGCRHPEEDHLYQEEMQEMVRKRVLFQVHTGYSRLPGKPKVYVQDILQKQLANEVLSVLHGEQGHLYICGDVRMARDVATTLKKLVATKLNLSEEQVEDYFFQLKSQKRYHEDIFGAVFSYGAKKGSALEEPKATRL

[4] = molecular target: T2, C-X-C chemokine receptor type 1 (Homo sapiens, UniProt P25024); further: in other assays of this panel Not Active means under 50% inhibition at 10 µM
T2 sequence (P25024 whole entry): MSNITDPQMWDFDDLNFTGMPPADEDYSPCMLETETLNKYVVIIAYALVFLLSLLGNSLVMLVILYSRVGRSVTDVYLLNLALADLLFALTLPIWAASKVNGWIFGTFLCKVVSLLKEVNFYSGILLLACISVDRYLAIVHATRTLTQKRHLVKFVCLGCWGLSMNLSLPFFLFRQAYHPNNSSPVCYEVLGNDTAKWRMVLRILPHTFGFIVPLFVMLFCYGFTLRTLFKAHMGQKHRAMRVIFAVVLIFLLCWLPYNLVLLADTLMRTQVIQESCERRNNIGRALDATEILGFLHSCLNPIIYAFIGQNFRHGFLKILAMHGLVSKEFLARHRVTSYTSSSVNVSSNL

[5] = molecular target: T3, C-C chemokine receptor type 4 (Homo sapiens, UniProt P51679); assay type: cell membranes, Membrane; details: chem-1; further: in other assays of this panel Not Active means under 50% inhibition at 10 µM
T3 sequence (P51679 whole entry): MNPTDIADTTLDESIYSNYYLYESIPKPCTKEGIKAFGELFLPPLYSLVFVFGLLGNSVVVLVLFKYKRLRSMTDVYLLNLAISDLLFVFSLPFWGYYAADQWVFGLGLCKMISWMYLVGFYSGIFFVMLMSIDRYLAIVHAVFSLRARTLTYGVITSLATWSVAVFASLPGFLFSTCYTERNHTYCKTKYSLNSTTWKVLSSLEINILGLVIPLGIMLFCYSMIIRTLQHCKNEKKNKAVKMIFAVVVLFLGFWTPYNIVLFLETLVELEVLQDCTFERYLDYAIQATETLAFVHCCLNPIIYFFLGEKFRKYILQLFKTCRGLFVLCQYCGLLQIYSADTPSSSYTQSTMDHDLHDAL

[6] = molecular target: Matrix metalloproteinase-9 (Homo sapiens, UniProt P14780); assay: biochemical; assay type: cell-based
[7] = molecular target: T4, Neutrophil elastase (Homo sapiens, UniProt P08246); assay type: tissue-based
T4 sequence (P08246 whole entry): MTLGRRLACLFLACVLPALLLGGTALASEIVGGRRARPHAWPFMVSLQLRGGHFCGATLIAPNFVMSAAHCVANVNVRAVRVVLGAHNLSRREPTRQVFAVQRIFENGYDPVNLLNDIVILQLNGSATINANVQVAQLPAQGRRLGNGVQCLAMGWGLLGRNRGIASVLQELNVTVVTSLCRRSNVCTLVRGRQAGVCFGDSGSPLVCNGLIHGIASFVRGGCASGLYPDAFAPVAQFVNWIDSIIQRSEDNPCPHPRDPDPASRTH

[8] = molecular target: T5, Neuropeptide Y receptor type 2 (Homo sapiens, UniProt P49146); assay type: cell membranes, Membrane; details: kan-ts; further: in other assays of this panel Not Active means under 50% inhibition at 10 µM
T5 sequence (P49146 whole entry): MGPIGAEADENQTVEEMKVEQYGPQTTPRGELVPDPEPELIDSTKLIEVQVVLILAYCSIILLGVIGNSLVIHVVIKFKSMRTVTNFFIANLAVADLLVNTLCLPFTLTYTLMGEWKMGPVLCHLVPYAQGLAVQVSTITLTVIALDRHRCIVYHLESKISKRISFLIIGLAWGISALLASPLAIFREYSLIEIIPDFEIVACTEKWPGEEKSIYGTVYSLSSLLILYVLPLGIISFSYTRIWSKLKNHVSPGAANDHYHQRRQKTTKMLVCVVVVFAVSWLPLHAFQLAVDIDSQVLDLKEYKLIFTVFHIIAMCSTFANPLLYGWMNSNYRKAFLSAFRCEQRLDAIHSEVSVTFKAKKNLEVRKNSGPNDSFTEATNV

Sequence of Matrix metalloproteinase-9 (P14780 whole entry): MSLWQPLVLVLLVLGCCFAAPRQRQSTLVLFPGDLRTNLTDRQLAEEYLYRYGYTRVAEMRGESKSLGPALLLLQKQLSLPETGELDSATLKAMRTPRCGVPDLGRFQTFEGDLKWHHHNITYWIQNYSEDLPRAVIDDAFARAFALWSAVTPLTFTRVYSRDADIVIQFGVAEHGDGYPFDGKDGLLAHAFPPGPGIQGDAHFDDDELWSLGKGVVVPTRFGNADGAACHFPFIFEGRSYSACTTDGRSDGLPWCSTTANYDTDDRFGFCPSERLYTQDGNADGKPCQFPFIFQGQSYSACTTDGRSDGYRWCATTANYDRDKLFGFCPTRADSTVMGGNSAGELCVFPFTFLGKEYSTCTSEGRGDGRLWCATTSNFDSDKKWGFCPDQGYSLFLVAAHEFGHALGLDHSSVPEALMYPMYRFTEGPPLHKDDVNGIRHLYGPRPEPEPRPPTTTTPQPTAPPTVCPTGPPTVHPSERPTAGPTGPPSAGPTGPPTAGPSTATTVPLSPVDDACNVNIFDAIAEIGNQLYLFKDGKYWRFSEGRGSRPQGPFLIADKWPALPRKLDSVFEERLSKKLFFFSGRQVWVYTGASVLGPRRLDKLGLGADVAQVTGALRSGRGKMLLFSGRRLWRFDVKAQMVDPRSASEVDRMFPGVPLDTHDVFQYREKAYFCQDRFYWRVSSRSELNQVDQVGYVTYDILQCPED
Sequence of 5-hydroxytryptamine receptor 6 (P50406 whole entry): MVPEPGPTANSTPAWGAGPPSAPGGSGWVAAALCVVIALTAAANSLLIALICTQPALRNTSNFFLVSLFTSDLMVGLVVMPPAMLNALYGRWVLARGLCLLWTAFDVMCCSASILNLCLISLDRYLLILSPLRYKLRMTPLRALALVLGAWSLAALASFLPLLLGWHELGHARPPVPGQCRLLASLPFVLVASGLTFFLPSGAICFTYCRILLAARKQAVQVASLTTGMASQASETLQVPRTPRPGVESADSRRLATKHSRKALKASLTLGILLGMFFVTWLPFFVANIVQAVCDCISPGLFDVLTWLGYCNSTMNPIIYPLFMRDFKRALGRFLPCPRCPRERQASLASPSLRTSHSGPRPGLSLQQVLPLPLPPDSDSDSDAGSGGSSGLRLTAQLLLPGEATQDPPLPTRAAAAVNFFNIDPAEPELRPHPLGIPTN

| SMILES | IC50 [1] | IC50 [2] | Ki [2] | IC50 [3] | IC50 [4] | IC50 [5] | IC50 [6] | IC50 [7] | IC50 [8] | pIC50 ([2]; read-out: IC50) | pKi ([2]; read-out: Ki) |
| --- | --- | --- | --- | --- | --- | --- | --- | --- | --- | --- | --- |
| CCC1=C[C@@H]2CN(C1)Cc1c([nH]c3ccccc13)[C@@](C(=O)OC)(c1cc3c(cc1OC)N(C)[C@H]1[C@@](O)(C(=O)OC)[C@H](OC(C)=O)[C@]4(CC)C=CCN5CC[C@]31[C@@H]54)C2 [VINORELBINE] | Not Active | Not Active | Not Active | Not Active | Not Active | Not Active | Not Active | Not Active | Not Active |  |  |
| CCOC(=O)[C@H](CCc1ccccc1)N[C@H]1CCc2ccccc2N(CC(=O)O)C1=O [BENAZEPRIL] | Not Active | Not Active | Not Active | Not Active | Not Active | Not Active | Not Active | Not Active | Not Active |  |  |
| CCOC(=O)C(C)(C)Oc1ccc(Cl)cc1 [CLOFIBRATE] | Not Active | Not Active | Not Active | Not Active | Not Active | Not Active | Not Active | Not Active | Not Active |  |  |
| CC(=O)Nc1c(I)c(NC(C)=O)c(I)c(C(=O)O)c1I [DIATRIZOIC ACID] | Not Active | Not Active | Not Active | Not Active | Not Active | Not Active | Not Active | Not Active | Not Active |  |  |
| CCOC(=O)C1=C(C)NC(C)=C(C(=O)OC)C1c1cccc([N+](=O)[O-])c1 (stereo unspecified) [NITRENDIPINE] | Not Active |  |  | Not Active | Not Active | Not Active | Not Active | Not Active | Not Active | 8.81 | 8.86 |
| O=C1CC[C@H](N2C(=O)c3ccccc3C2=O)C(=O)N1 | Not Active | Not Active | Not Active | Not Active | Not Active | Not Active | Not Active | Not Active | Not Active |  |  |
| C/C=C/C[C@@H](C)[C@@H](O)[C@H]1C(=O)N[C@@H](CC)C(=O)N(C)CC(=O)N(C)[C@@H](CC(C)C)C(=O)N[C@@H](C(C)C)C(=O)N(C)[C@@H](CC(C)C)C(=O)N[C@@H](C)C(=O)N[C@H](C)C(=O)N(C)[C@@H](CC(C)C)C(=O)N(C)[C@@H](CC(C)C)C(=O)N(C)[C@@H](C(C)C)C(=O)N1C [CYCLOSPORINE] | Not Active | Not Active | Not Active | Not Active | Not Active | Not Active | Not Active | Not Active | Not Active |  |  |
| CC(C)Cc1ccc(C(C)C(=O)O)cc1 (stereo unspecified) [IBUPROFEN] | Not Active | Not Active | Not Active | Not Active | Not Active | Not Active | Not Active | Not Active | Not Active |  |  |
| CCCCN1CCCCC1C(=O)Nc1c(C)cccc1C.Cl (stereo unspecified) [BUPIVACAINE HYDROCHLORIDE] | Not Active | Not Active | Not Active | Not Active | Not Active | Not Active | Not Active | Not Active | Not Active |  |  |
